Reference: patent US20210235699A1, “Adjuvant Compositions Comprising a Tetramethylguanidine and a 4-Isothiazolin-3-One” (Lonza, LLC, priority 2018, published 2021)

Assays:
[1] = test system: combined bacterial test inoculum: Acinetobacter calcoaceticus, Escherichia coli, Pseudomonas aeruginosa, Enterobacter cloacae; experiment: Bacterial challenge test (ASTM D2574-97, modified) in standard water based interior paint; assay type: cell-based; settings: 50 ppm
Procedure: (§1) The following bacterial and fungal challenge tests were performed to ascertain whether low concentrations of 4-isothiazolin-3-one biocidal active compounds, pyrithione, coumarin or guanidine adjuvant are sufficient to prevent microbial contamination of final products when deliberately inoculated with spoilage microbes.
(§2) The tests were performed according to ASTM standard D2574-97 (Standard Test Method for Resistance of Emulsion Paints in the Container to Attack by Microorganisms, ASTM International, West Conshohocken, Pa.), with higher inoculation volumes and frequency. A standard water based interior paint was used as the test substrate. Sample sizes of 20 g test substrate were used and the test samples were prepared in a sterile 30 mL square Nalgene bottle.
The bacteria were grown on pH 5, 7, or 9 Trypticase Soy Agar (TSA) lawns. The bacteria were grown individually on TSA and harvested by using sterile buffered water. The bacterial lawns were washed off with 30 mL of sterile water and an equal volume of each individual cell suspension was withdrawn from each serum bottle to make a combined cell suspension. Combined bacterial suspension were about 10^7 cfu/mL, which provides about 10^6 cfu/mL in the sample.
(§3) The following microorganisms were used for inoculation of the tested samples:
(§4) For the bacterial challenge testing, each sample was inoculated with a combined bacterial test inoculum volume equivalent to 10% of the total initial sample volume for the initial inoculation, 5% of the total initial sample volume for the second inoculation and 2.5% of the total initial sample volume for the third inoculation. Inoculum volumes for the fungal challenge tests were 2%, 1% and 0.5% of the total initial sample volume, respectively. Samples were inoculated every 96 h.
(§5) Concentrations of biocidal active compounds and adjuvants refer to the final concentration in the test samples prior to the first inoculation.
(§6) The efficacy of the added agent in each sample was monitored by means of a streak plate test after 24 hours (all inoculations) and 72 hours of inoculation (first and second inoculation). At 72 hours of the third inoculation performed, a dilution plate count was performed in order to obtain a quantitative measurement of contamination (cfu/mL). A count of less than 10 colony forming units per mL ([…]) is considered to show no measurable contamination. For the streak plate tests, bacterial samples were streaked on Tryptic Soy Agar (TSA) and incubated for 48 hours at 30° C. before reading. Fungal samples were streaked on Potato Dextrose Agar (PDA) and incubated for 5 days at 25° C. before reading.
(§7) The streak plates were ranked from 0-5c according to the degree of microbial growth:
(§8) The challenge tests were performed as described above.

[2] = test system: fungal test inoculum: Aspergillus niger, Penicillium funiculosum, Candida albicans; experiment: Fungal challenge test (ASTM D2574-97, modified) in standard water based interior paint; assay type: cell-based; settings: 50 ppm
Procedure: as §1, §2
Fungal lawns were grown on Potato Dextrose Agar (PDA) or Sabouraud Dextrose Agar (SAB). Individual fungal spore suspensions were harvested by adding 10 mL of sterile 0.05% Triton X to fungal lawns. The lawns were then gently agitated by rubbing a sterile swab on the lawn, being careful not to puncture the agar. The liquid was then aseptically transferred to a sterile bottle containing sterile glass beads. The top of the bottle was closed and the bottle shaken vigorously to break up any chunks in the suspension. The shaken spore suspension was decanted through sterile fibers into another sterile bottle. The decanted spore suspension was counted using a hemocytometer. Once the spore counts were determined, each suspension was diluted in order to obtain 10^6 spore/mL. Each diluted fungal suspension was poured into a sterile container.
as §3
as §4, with “Inoculum volumes for the fungal challenge tests were 2%, 1% and 0.5% of the total initial sample volume, respectively.” left out
as §5, §6, §7, §8

[3] = test system: bacterial test inoculum (Acinetobacter calcoaceticus, Escherichia coli, Pseudomonas aeruginosa, Enterobacter cloacae); experiment: Quick kill testing in pre-contaminated standard interior paint (dilution-plate counts); assay type: cell-based; settings: Table 9, 50 ppm, 30° C.
Procedure: An additional test was performed to analyze how quickly the tested biocidal compositions will recover a sample from microbial spoilage. For each sample, 20 g of a pre-contaminated standard interior paint formulation serving as a test substrate was weighed into a sterile container. All samples were contaminated with the bacterial test inoculum described above (10% of the of the total initial sample volume).
A dilution-plate count was performed on the untreated sample (0 hour time point) and a biocidal composition added aseptically to each sample. Subsequent to this treatment, further dilution-plate counts were performed at fixed time intervals (time points are given in hours) on each sample, including an untreated negative control. All samples were incubated at 30° C.±2° C.
Concentrations in ppm refer to final concentrations of the biocidal compositions in the test samples. The relative amounts of active compounds and adjuvant in the tested biocidal compositions were as indicated below: […]

[4] = test system: bacteria, fungi and yeast; settings: cited from earlier work
[5] = neutral pH; cited from earlier work

## O=c1[nH]sc2ccccc12 [BIT, 1,2-benzisothiazolin-3-one]
[1]; inoculum 2.50%
  Dilution plate count, 3rd inoculation 72 h: 4.2 × 10^7 cfu/mL
  Streak plate rank, 3rd inoculation 24 h: 5 (5 = greater than 45 cfu)
[1]; inoculum 5%
  Streak plate rank, 2nd inoculation 72 h: 5 (5 = greater than 45 cfu)
[1]; inoculum 10%
  Streak plate rank, 1st inoculation 24 h: 5 (5 = greater than 45 cfu)
  Streak plate rank, 1st inoculation 72 h: 4 (4 = 31-45 cfu)
[2]; inoculum 0.50%
  Dilution plate count, 3rd inoculation 72 h: 2.0 × 10^2 cfu/mL
  Streak plate rank, 3rd inoculation 24 h: 5 (5 = greater than 45 cfu)
[2]; inoculum 1%
  Streak plate rank, 2nd inoculation 72 h: 1 (1 = 1-5 Colony Forming Unit (cfu))
[2]; inoculum 2%
  Streak plate rank, 1st inoculation 24 h: 5 (5 = greater than 45 cfu)
  Streak plate rank, 1st inoculation 72 h: 2 (2 = 6-15 cfu)
[3]; 4 hours after treatment
  Dilution-plate count T4: 1.15 × 10^7
[3]; 8 hours after treatment
  Dilution-plate count T8: 3.4 × 10^6
[3]; 24 hours after treatment
  Dilution-plate count T24: 9.4 × 10^5
[4]
  amounts required for a reliable and quick biocidal activity: up to 500 ppm

## Zinc pyrithione
[5]
  solubility in water: 8 ppm
